As usually defined, the melting point is the temperature, or range, at which the solid turns liquid. For the molecule `O=C(O)COc1cccc2c1CCC(Cn1nc(C(c3ccccc3)c3ccccc3)ccc1=O)C2` (centres undefined), the melting point fell in the range of 144 to 145 °C. As for `COCOc1cc(CBr)c2nc3cccc(OCOC)c3nc2c1`, the melting point lay in the range of 167 to 168 °C. Next, `Cc1c(N2CCC3(CC3N)C2)c(F)cc2c(=O)c(C(=O)O)cn([C@@H]3C[C@@H]3F)c12` (some centres undefined): 103 to 109 °C; `N#CC1C(=O)c2ccccc2Nc2ccccc21` (centres undefined): 195 to 197 °C. Consider `CCC1CC(=O)CC2CCC3C4CCC(OC(C)=O)C4(C)CCC3C12C` (centres undefined), for which the melting point amounted to 159 °C.

In turn, `CC(C)Cc1ccc(CCCN(C)[C@H]2CC[C@H](c3ccc4[nH]c(=O)oc4c3)CC2)cc1` yielded a melting point of 162 to 165 °C.

In turn, `NS(=O)(=O)c1ccccc1S(=O)Cc1ccccc1` (centres undefined) showed a melting point of 206 to 209 °C. Next, `O=C(CC1CCCC1)NC[C@H]1CN(c2ccc3c(c2)CCCc2cnn(C(=O)CC4CCCC4)c2-3)C(=O)O1`: 165 to 167 °C. The figure for `COc1cc(-c2ccccc2)n(-c2ccc(C)cc2)c1-c1ccccc1` is 157 to 158 °C; for `CCCn1cnc2nc(-c3ccc(Cl)cc3)nn2c1=S` it is 214 to 216 °C; for `O=C1CC(c2cccc(OCc3ccccc3)c2)=Nc2ccc(N3CCCC3)cc21` it is 320 to 322 °C. Consider `CCC#CCOc1ccc(C=O)cc1OC`, for which the melting point fell in the range of 47 to 50 °C. Take `Clc1ccc(-c2cc(-c3cccs3)[nH]n2)cc1`: the melting point turned out to be 217 °C. The figure for `COc1ccc(Cn2c(Cl)nc3c(Cl)ncnc32)cc1` is 110 to 112 °C; for `COc1c2nc(CCl)n(C)c(=O)c2c(OC)c2nc(CCl)n(C)c(=O)c12` it is 273 to 274 °C; for `C=CCC1(CC=C)CCC(=Cc2ccc(F)cc2)C1(O)Cn1cncn1` (centres undefined) it is 112 °C.

`CCOCc1cc(Cn2cc(C3c4ccccc4C=Cc4ccccc43)c(=S)[nH]c2=O)cc(C(=O)O)c1` returned a melting point greater than 240 °C. Consider `NC1=NS(=O)N=C1NCCCOc1cccc(CN2CCCCC2)n1` (centres undefined), for which the melting point was 145 to 147 °C.

Molecule `CC(C)(C)C(O)(Cn1cncn1)C1CCCCC1` (centres undefined) gave a melting point of 100 to 102 °C. The figure for `Cc1cccc(C)c1CO` is 84 °C.

Regarding `CCN(CC)CCNC(=O)c1cc(Cl)nc2ccc(I)cc12`, the melting point lay in the range of 106 to 108 °C. For `CCOC(=O)c1c(Cl)c2cc(C)ccc2n(Cc2ccccc2)c1=O`, the melting point was 103 °C.

On to `CCOC(=O)N1CC[C@@H](N)[C@H](O)C1` (relative stereo), for which the melting point came to 76.9 °C. For `O=C(NC(=O)c1c(Cl)cccc1Cl)Nc1cnc(-c2ccc(Cl)cc2)cn1`, the melting point lay in the range of 245 to 249 °C. `CC(Cc1ccc(F)cc1F)C(N)=O` (centres undefined) yielded a melting point of 90 to 91 °C.

In turn, `O=C(NN=Cc1cccnc1)NN=Cc1cccnc1` gave a melting point of 202 to 204 °C. The figure for `CCCCn1ccc(Cc2cnc(NCCCCc3ncc(Br)cc3N)[nH]c2=O)cc1=O` is 140 to 150 °C; for `C=CCC1C(=O)N(Cc2ccccc2)c2ccccc2N(C(=O)CN2C(=O)c3ccccc3C2=O)C1C` (centres undefined) it is 218 to 219 °C. On to `N#Cc1cccn1-c1cccc(C(=O)N=C(N)N)c1`, for which the melting point is 136 to 138 °C.

`COc1ccc(/C(C)=C/C(=O)O)cc1OC` had a melting point of 73 to 74 °C. `COc1cc2c(c3c1OC(C)(C)C3)C(c1cccc(N3CCN(CC(N)=O)S3(=O)=O)c1)=NC(C)(C)C2` registered a melting point of 206 to 208 °C. The figure for `COc1ccc(C(=O)Nc2cc(NC(=O)c3cccc(Br)c3)ccc2C)cc1OC` is 136 to 138 °C. `Nc1c(Cl)cc(-c2nc(C3CCNCC3)no2)c2c1CCO2` returned a melting point of 219 °C. Next, `COc1ccc(Cc2c(N)nc(N)nc2O)cc1OC`: 268 to 270 °C; `CNC(=O)[C@H]1CN(c2ccc3c(c2)sc(=O)n3C)C(=O)O1`: 264 to 267 °C; `Cc1cc(OCCCCCCCCNC(=O)c2cc(-c3cccc(Cl)c3)c(OCC(=O)O)c(-c3cccc(Cl)c3)c2)ccc1F`: 138 to 140 °C. The molecule `C=C(C)COc1cc(C)c(NC=O)c(C)c1` came in with a melting point of 128 to 129 °C. Molecule `Nc1nc(NCCO)c2ncn(C3C=CC(CO)C3)c2n1` (centres undefined) yielded a melting point of 150 to 152 °C.

Molecule `Cn1cc(C2=C(c3c4n(c5ccccc35)CC(NC(=O)OC(C)(C)C)CC4)C(=O)OC2=O)c2ccccc21` (centres undefined) came in with a melting point of 141 to 145 °C. Next, `N#CNC(=S)Nc1ccccc1Cl`: 253 to 255 °C. The figure for `CCOC(=O)Cn1c2cccccc-2c(C(=O)OCC)c1=O` is 115 to 120 °C; for `C=C(C)c1ccc(-c2ccc(OC(C)=O)cc2)cc1` it is 131 to 132 °C. The figure for `CS(=O)(=O)c1ccc(Oc2ccc(OC(F)(F)C(Cl)Cl)cc2)cc1` is 67 to 70 °C; for `COC(=O)c1ccc(-c2noc(C(F)(F)F)n2)s1` it is 126 to 127 °C. Take `Cc1ccc(NC(=O)Nc2ccc(N(CCCl)CCCl)cc2)cc1Nc1c2cccc(C)c2nc2c(C(=O)NCCN(C)C)cccc12`: the melting point was 286 to 289 °C. Consider `CC(=O)SCC(Cc1ccc(N(C)C)cc1)C(=O)Nc1cccc(C(=O)O)c1` (centres undefined), for which the melting point was in the range of 71 to 73 °C. Next, `COc1ccc([N+](=O)[O-])cc1CC#N`: 100 °C. Next, `COc1ccc(-c2nc(-c3ccc(OS(=O)(=O)O)cc3)cs2)cc1OC`: 248 to 249 °C; `COc1ccnc(Nc2nc(-c3cc(-c4ccccc4)no3)cs2)c1`: 177 to 179 °C; `O=C(O)[C@H](Cc1cccc(OCC(F)(F)F)c1)[C@@H](O)c1ccc(F)cc1` (racemic): 142 to 143 °C. Next, `COc1ccc(-c2csc3ccc([N+](=O)[O-])c(C(=O)N4CCOCC4)c23)cc1OC`: 144 °C; `CC(=O)Nc1ccc(-c2cccc(C3=NC(C)(C)Cc4cc(O)c5c(c43)CC(C)(C)O5)c2)cc1`: 185 to 189 °C; `C#Cc1ccc(C(=O)c2ccc3n2CCC3C(=O)OC)cc1` (centres undefined): 113 to 114 °C. `CCCCc1ccc(CCc2cc3c(s2)NC(=S)CN=C3c2ccccc2Cl)cc1` returned a melting point of 152 to 154 °C. The figure for `O=C(Nc1cc(F)cc(F)c1)c1cc(Br)ccc1O` is 259 to 261 °C; for `CC(C)Oc1ccc(SCCSc2ccc(OC(C)C)cc2)cc1` it is 115 to 116 °C; for `CCN(CC)C(=O)c1ccc(-c2nc(=O)c3ccccc3s2)cc1` it is 180 °C. The molecule `CC(=O)CCc1ccc(OCCCC(=O)O)cc1` displayed a melting point of 97 to 99 °C. Next, `NC(=O)/C=C/c1cc([N+](=O)[O-])ccc1Cl`: 208 to 210 °C; `COc1ccc(C(=O)CCC(C(=O)c2ccc(OCc3ccccc3)cc2)c2ccc(OC)cc2)cc1` (centres undefined): 132 to 134 °C; `Cc1cccc(NC(=O)NC2CN(C(=O)C(C)(C)C)c3ccccc3N(CC(=O)N(C)C)C2=O)c1` (centres undefined): 252 to 254 °C. As to `CCNC1CCc2[nH]c3ccccc3c2C1` (centres undefined), the melting point lay in the range of 128 to 129 °C.

On to `OC1C2=C(CCN(CCCCc3c[nH]c4ccccc34)C2)c2ccccc21` (centres undefined), for which the melting point is 205 to 208 °C. The figure for `CC(C)(C)OC(=O)NN=Cc1ccc(-c2ccccn2)cc1` is 169 to 172 °C.

With `COC(=O)c1cn2c(C)c(-c3ccccc3)sc2n1`, the melting point lay in the range of 155 to 157 °C. The figure for `CN1CCN(C[C@H]2C(=O)Nc3ccccc3S[C@H]2c2ccccc2)CC1` (relative stereo) is 198 °C; for `Cn1cc(C2=C(c3cn4c5c(cccc35)CCC4)C(=O)OC2=O)c2ccccc21` it is 217 to 219 °C; for `COc1ccc2c(c1)CC1(CCC(=O)CC1)C21OCCO1` it is 142 to 144 °C.

`CN(C)C1CCc2[nH]c3c(C(N)=O)cccc3c2C1` (centres undefined) showed a melting point of 252 to 254 °C.

Regarding `Cc1cc(Oc2ccc(C(F)(F)F)cc2Cl)cc(Cl)n1`, the melting point was 75 °C. The figure for `COc1ccc(-c2[nH]nc3c2C(=O)c2c(NC(C)=O)cccc2-3)cc1` is 174 to 175 °C; for `CS(=O)(=O)c1cccc(-c2ccc(C3C(CCC(O)c4ccc(F)cc4)C(=O)N3c3ccc(F)cc3)cc2)c1` (centres undefined) it is 104 °C; for `O=CCCCCC(=O)Nc1ccc(C(F)(F)F)cc1` it is 130 to 131 °C. Next, `CCOc1ccc(C=O)c(Oc2ccc(Cl)cc2Cl)n1`: 95 to 96 °C. On to `Cn1c(COc2ccc(C(C)(CCC(=O)O)c3ccc(OCc4nc5ccccc5n4C)cc3)cc2)nc2ccccc21`, for which the melting point was in the range of 110 to 112 °C.

Take `Oc1cc2ncnc(Nc3cccc(Cl)c3)c2cc1O`: the melting point is 233 to 235 °C. Next, `CCCC(CCC)NC(=O)Nc1ccc(OC)cc1OC`: 172 to 173 °C. Next, `CC(C)(C)OC(=O)CN1C(=O)[C@@H](N[C@@H](CCCCNC(=O)OC(C)(C)C)C(=O)O)CSc2ccccc21`: 134 to 135 °C; `COc1ccccc1-c1cc(NC(=O)C2CCNCC2)ncn1`: 279 to 280 °C; `CCOc1ccc([N+](=O)[O-])c(C=C[N+](=O)[O-])c1OCc1ccccc1`: 110 °C. The figure for `Cc1sc(-c2ccncc2)nc1CCOc1ccc(C[C@H](Nc2ccccc2C(=O)c2ccccc2)C(=O)O)cc1` is 155 to 158 °C; for `O=C(c1ccccc1)c1ccc(-c2ccc(-c3ccc(Cl)cc3)s2)s1` it is 165 to 175 °C.

As for `Oc1cccc2nscc12`, the melting point lay within 184 to 186 °C.

Consider `COc1cc(-c2ncn(C)c2-c2ccc3c(c2)NCCO3)cc(OC)c1OC`, for which the melting point lay within 160 to 162 °C. In turn, `ClCn1cc(Cl)c(-c2cc(Cl)cc(Cl)c2)n1` had a melting point of 88 °C. Next, `O=C(O)COc1cc2cc(C3CCCC3)sc2c(Cl)c1Cl`: 173 to 174 °C; `COCc1cc([N+](=O)[O-])ccc1OCc1ccccc1`: 108 °C; `COc1cc(OC)cc(-c2ncn(-c3ccc(C(F)(F)F)cc3)c2-c2ccc(OC)c(O)c2)c1`: 111 to 113 °C. As to `Cc1ccnc(N2CCN(CCCCC3Sc4ccccc4NC3=O)CC2)c1` (centres undefined), the melting point was 119 °C.

Values taken from a melting point compilation (Tetko et al.; mined from patent text by program, amines drawn as free bases though some values may be those of a salt).
